In patent publication US10934282B2, “Heteroaromatic modulators of the retinoid-related orphan receptor gamma” (LEO PHARMA A/S, priority 2016, dated 2021):
Structures can show the parent of a compound that is named as a salt.

Assays:
[1] = biological target: T1, human RORgt nuclear receptor (RORgT ligand binding domain protein) (Homo sapiens, UniProt P51449); assay: ROR-gamma binding assay (Scintillation Proximity Assay, displacement of [3H]-25-hydroxycholesterol); conditions: EC50, SPA, 15 nM [3H]-25-Hydroxycholesterol, RORgT LBD 12 nM
T1 construct: purchased Proteros Biostructures GmbH
T1 sequence (P51449 with tags, fused parts or gaps): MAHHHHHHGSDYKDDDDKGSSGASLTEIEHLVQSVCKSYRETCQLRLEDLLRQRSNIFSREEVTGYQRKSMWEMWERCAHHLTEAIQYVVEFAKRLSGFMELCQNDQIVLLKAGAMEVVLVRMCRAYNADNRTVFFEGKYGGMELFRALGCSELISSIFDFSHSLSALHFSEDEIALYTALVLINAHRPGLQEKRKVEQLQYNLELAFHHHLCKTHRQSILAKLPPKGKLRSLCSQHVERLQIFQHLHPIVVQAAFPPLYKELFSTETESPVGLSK
Method in brief: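 SPA competition of compound against 15 nM [3H]-25-hydroxycholesterol for His/FLAG-tagged human RORγt LBD (12 nM) on His-tag PVT beads, in 50 mM HEPES pH 7.4, 150 mM NaCl, 5 mM MgCl2, 0.1% BSA, 0.5% DMSO. 30 min preincubation, then ≥4 h at room temperature in darkness; EC50 by four-parameter fit.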

[2] = system: IL-17A in Human peripheral mononuclear cells; assay: Human PBMC IL-17A assay; assay type: cell-based; conditions: 72 h, EC50, antiCD3/antiCD28-coated beads, 3 days, alpha-LISA
Method in brief: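 Cryopreserved human PBMC (130,000/well) stimulated with anti-CD3/anti-CD28-coated beads (1 cell per bead) in RPMI-1640 with 10% bovine calf serum, compounds at 0.1% DMSO, for 3 days. Supernatant IL-17A measured by AlphaLISA, viability by PrestoBlue; EC50 from 4-parameter non-linear regression.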

[3] = system: IL-17A levels in human peripheral blood; assay: tissue or blood; assay type: cell-based; conditions: 72 h, read-out: Human Whole blood IL-17A (nM)

SMILES | EC50 [1] | EC50 [2] | EC50 [3]
Cc1cc(CN2CCN(C(=O)C3CC3)[C@@H](C)C2)c(C)c(Nc2nnc(CC#N)o2)c1 [Example 16, 2-[5-[3-[[(3S)-4-(cyclopropanecarbonyl)-3-methyl-piperazin-1-yl]methyl]-2,5-dimethyl-anilino]-1,3,4-oxadiazol-2-yl]acetonitrile] | 223 nM | 237 nM | 206 nM
Cc1cc(CN2CCN(C(=O)OCC(F)(F)F)[C@@H](C)C2)c(C)c(Nc2nnc([C@H]3C[C@@H](O)C3)o2)c1 [Example 70, 2,2,2-trifluoroethyl (2S)-4-[[3-[[5-(3-hydroxycyclobutyl)-1,3,4-oxadiazol-2-yl]amino]-2,5-dimethyl-phenyl]methyl]-2-methyl-piperazine-1-carboxylate] | 52.2 nM | 78.5 nM | 227 nM
Cc1cc(CN2CCN(C(=O)OC(C)C)[C@@H](C)C2)c(C)c(Nc2nnc([C@@H](N)[C@@H](C)O)o2)c1 [Example 41, isopropyl (2S)-4-[[3-[[5-[(1S,2R)-1-amino-2-hydroxy-propyl]-1,3,4-oxadiazol-2-yl]amino]-2,5-dimethyl-phenyl]methyl]-2-methyl-piperazine-1-carboxylate] | 91.1 nM | 215 nM | 373 nM
Cc1cc(CN2CCN(C(=O)OC(C)C)[C@@H](C)C2)c(C)c(Nc2nnc([C@@H](O)CO)o2)c1 [Example 72, isopropyl (2S)-4-[[3-[[5-[(1S)-1,2-dihydroxyethyl]-1,3,4-oxadiazol-2-yl]amino]-2,5-dimethyl-phenyl]methyl]-2-methyl-piperazine-1-carboxylate] | 81.6 nM | 262 nM | 258 nM
Cc1cc(CN2CCN(C(=O)OC(C)C)[C@@H](C)C2)c(C)c(Nc2nnc(C[C@@H](C)O)o2)c1 [Example 61, isopropyl (2S)-4-[[3-[[5-[(2R)-2-hydroxypropyl]-1,3,4-oxadiazol-2-yl]amino]-2,5-dimethyl-phenyl]methyl]-2-methyl-piperazine-1-carboxylate] | 42.3 nM | 106 nM | 101 nM
Cc1c(CN2CCN(C(=O)c3ccccc3)[C@@H](C)C2)cc(Cl)cc1Nc1nnc(C2CCOC2)o1 (stereo partly drawn) [Example 3, [(2S)-4-[[5-chloro-2-methyl-3-[(5-tetrahydrofuran-3-yl-1,3,4-oxadiazol-2-yl)amino]phenyl]methyl]-2-methyl-piperazin-1-yl]-phenyl-methanone] | 22.3 nM | 51.1 nM | 204 nM
COCc1nnc(Nc2cc(Cl)cc(CN3CCN(C(=O)C4CCCC4)[C@@H](C)C3)c2C)o1 [Example 13, [(2S)-4-[[5-chloro-3-[[5-(methoxymethyl)-1,3,4-oxadiazol-2-yl]amino]-2-methyl-phenyl]methyl]-2-methyl-piperazin-1-yl]-cyclopentyl-methanone] | 14.7 nM | 48.9 nM | 112 nM
Cc1cc(CN2CCN(C(=O)OC(C)C)[C@@H](C)C2)c(C)c(Nc2nnc([C@H]3C[C@@H](O)C3)o2)c1 [Example 37, isopropyl (2S)-4-[[3-[[5-(3-hydroxycyclobutyl)-1,3,4-oxadiazol-2-yl]amino]-2,5-dimethyl-phenyl]methyl]-2-methyl-piperazine-1-carboxylate] | 40.8 nM | 43.7 nM | 426 nM
Cc1c(CN2CCN(C(=O)OC(C)C)[C@@H](C)C2)cc(C(F)F)cc1Nc1nnc([C@H](C)O)o1 [Example 43, isopropyl (2S)-4-[[5-(difluoromethyl)-3-[[5-[(1S)-1-hydroxyethyl]-1,3,4-oxadiazol-2-yl]amino]-2-methyl-phenyl]methyl]-2-methyl-piperazine-1-carboxylate] | 53.9 nM | 63.5 nM | 332 nM
COCc1nnc(Nc2cc(Cl)cc(CN3CCN(C(=O)C4CCC4)[C@@H](C)C3)c2C)o1 [Example 12, [(2S)-4-[[5-chloro-3-[[5-(methoxymethyl)-1,3,4-oxadiazol-2-yl]amino]-2-methyl-phenyl]methyl]-2-methyl-piperazin-1-yl]-cyclobutyl-methanone] | 40.4 nM | 128 nM | 302 nM
Cc1cc(CN2CCN(C(=O)OC(C)C)[C@@H](C)C2)c(C)c(Nc2nnc(C3CCNC(=O)C3)o2)c1 (stereo partly drawn) [Example 58, isopropyl (2S)-4-[[2,5-dimethyl-3-[[5-(2-oxo-4-piperidyl)-1,3,4-oxadiazol-2-yl]amino]phenyl]methyl]-2-methyl-piperazine-1-carboxylate] | 54.4 nM | 373 nM | 215 nM
Cc1cc(CN2CCN(C(=O)CC3CCC3)[C@@H](C)C2)c(C)c(Nc2nnc([C@@H](C)O)o2)c1 [Example 26, 2-cyclobutyl-1-[(2S)-4-[[3-[[5-[(1R)-1-hydroxyethyl]-1,3,4-oxadiazol-2-yl]amino]-2,5-dimethyl-phenyl]methyl]-2-methyl-piperazin-1-yl]ethanone] | 58.2 nM | 91.3 nM | 119 nM
Cc1cc(CN2CCN(C(=O)OC(C)(C)C)[C@@H](C)C2)c(C)c(Nc2nnc(-c3cnnn3C)o2)c1 [Example 30, tert-butyl (2S)-4-[[2,5-dimethyl-3-[[5-(3-methyltriazol-4-yl)-1,3,4-oxadiazol-2-yl]amino]phenyl]methyl]-2-methyl-piperazine-1-carboxylate] | 31.2 nM | 93.6 nM | 239 nM
Cc1c(CN2CCN(C(=O)OC(C)C)[C@@H](C)C2)cc(C(F)F)cc1Nc1nnc([C@@H](C)O)o1 [Example 50, isopropyl (2S)-4-[[5-(difluoromethyl)-3-[[5-[(1R)-1-hydroxyethyl]-1,3,4-oxadiazol-2-yl]amino]-2-methyl-phenyl]methyl]-2-methyl-piperazine-1-carboxylate] | 31.6 nM | 86.5 nM | 272 nM
Cc1cc(CN2CCN(C(=O)C3CCC3)[C@@H](C)C2)c(C)c(Nc2nnc(CC#N)o2)c1 [Example 15, 2-[5-[3-[[(3S)-4-(cyclobutanecarbonyl)-3-methyl-piperazin-1-yl]methyl]-2,5-dimethyl-anilino]-1,3,4-oxadiazol-2-yl]acetonitrile] | 63.8 nM | 101 nM | 421 nM
Cc1c(CN2CCN(C(=O)OC(C)(C)C)[C@@H](C)C2)cc(Cl)cc1Nc1ncc(CO)o1 [Example 74, tert-butyl (2S)-4-[[5-chloro-3-[[5-(hydroxymethyl)oxazol-2-yl]amino]-2-methyl-phenyl]methyl]-2-methyl-piperazine-1-carboxylate] | 71.8 nM | 408 nM | 946 nM
Cc1cc(CN2CCN(C(=O)OC(C)C)[C@@H](C)C2)c(C)c(Nc2nnc([C@@H]3CCCN3S(C)(=O)=O)o2)c1 [Example 65, isopropyl (2S)-4-[[2,5-dimethyl-3-[[5-[(2S)-1-methylsulfonylpyrrolidin-2-yl]-1,3,4-oxadiazol-2-yl]amino]phenyl]methyl]-2-methyl-piperazine-1-carboxylate] | 47.9 nM | 58.7 nM | 107 nM
Cc1c(CN2CCN(C(=O)OC(C)C)[C@@H](C)C2)cc(Cl)cc1Nc1nnc(C2CCNC2=O)o1 (stereo partly drawn) [Example 48, isopropyl (2S)-4-[[5-chloro-2-methyl-3-[[5-(2-oxopyrrolidin-3-yl)-1,3,4-oxadiazol-2-yl]amino]phenyl]methyl]-2-methyl-piperazine-1-carboxylate] | 37.2 nM | 191 nM | 296 nM
Cc1cc(CN2CCN(C(=O)OC(C)C)[C@@H](C)C2)c(C)c(Nc2nnc([C@@H]3COCCN3)o2)c1 [Example 55, isopropyl (2S)-4-[[2,5-dimethyl-3-[[5-[(3S)-morpholin-3-yl]-1,3,4-oxadiazol-2-yl]amino]phenyl]methyl]-2-methyl-piperazine-1-carboxylate dihydrochloride] | 39 nM | 62.3 nM | 36.8 nM
Cc1c(CN2CCN(C(=O)OC(C)C)[C@@H](C)C2)cc(Cl)cc1Nc1nnc(C2COC2)o1 [Example 40, isopropyl (2S)-4-[[5-chloro-2-methyl-3-[[5-(oxetan-3-yl)-1,3,4-oxadiazol-2-yl]amino]phenyl]methyl]-2-methyl-piperazine-1-carboxylate] | 21.2 nM | 212 nM | 365 nM
CC[C@H](C)C(=O)N1CCN(Cc2cc(Cl)cc(Nc3nnc(COC)o3)c2C)C[C@@H]1C [Example 11, (2S)-1-[(2S)-4-[[5-chloro-3-[[5-(methoxymethyl)-1,3,4-oxadiazol-2-yl]amino]-2-methyl-phenyl]methyl]-2-methyl-piperazin-1-yl]-2-methyl-butan-1-one] | 28.1 nM | 92.6 nM | 132 nM
CC[C@H](N)c1nnc(Nc2cc(Cl)cc(CN3CCN(C(=O)OC(C)C)[C@@H](C)C3)c2C)o1 [Example 38, isopropyl (2S)-4-[[3-[[5-[(1S)-1-aminopropyl]-1,3,4-oxadiazol-2-yl]amino]-5-chloro-2-methyl-phenyl]methyl]-2-methyl-piperazine-1-carboxylate] | 49.7 nM | 58.5 nM | 403 nM
